Assay results: patent US10907181B2, “Biosynthetic pathways and products” (REGENTS OF THE UNIVERSITY OF MINNESOTA, priority 2013, dated 2021)

Key:
[1] = Extraction of anhydromevalonolactone with different organic solvents (extract efficiency and partition coefficient Kd, solvent/water); type: physicochemical
Excerpt: Purification of anhydromevalonolactone also was studied by extraction with different organic solvents (Table 1). Approximately 96% of the anhydromevalonolactone was extracted when chloroform was applied at a 1:1 volume ratio. […] NMR analysis indicated the anhydromevalonolactone was in the lactone form, instead of equilibrating with its hydroxyacid form (FIG. 6).
The fermentation broth from the bioreactor was harvested by centrifuge, and then was discolored by activated charcoal. The test tubes were filled with 5 mL fermentation broth and concentrated H3PO4 or H2SO4, then autoclaved for one hour to make anhydromevalonate, and then the concentrations of mevalonate and anhydromevalonate were measured by HPLC. Immiscible organic solvents were used to extraction anhydromevalonate from the reaction mixture.

[2] = liquid-liquid solvent extraction at equal volume ratio; conditions: not told
[3] = liquid-liquid solvent extraction at equal volume ratio, HPLC quantification; conditions: not told

- Anhydromevalonolactone extract efficiency ([1]; solvent Benzene): 65.26%
- Anhydromevalonolactone extract efficiency ([1]; solvent CHC13 (chloroform), 1:1 volume ratio): 96.14%
- Anhydromevalonolactone extract efficiency ([1]; solvent CHC13 (chloroform), 1:1 volume ratio, listed as anhydromevalonolactone): Approximately 96%
- Anhydromevalonolactone extract efficiency ([1]; solvent DIBK): 44.15%
- Anhydromevalonolactone extract efficiency ([1]; solvent MIBK): 79.90%
- Anhydromevalonolactone extract efficiency ([1]; solvent Oley): 35.56%
- Anhydromevalonolactone extract efficiency ([1]; solvent ethyl acetate): 79.67%
- partition coefficient (Kd) [2]: 25 concentration ratio (Kd)
- partition coefficient (Kd) [3]: 24.89 concentration ratio (Kd)
SMILES: CC1=CC(=O)OCC1 [Anhydromevalonolactone, anhydromevalonolactone]
